Reference: the supplement of paper PMC10307832

Compound: CN(C)C/C=C/C(=O)Nc1cc2c(Nc3ccc(F)c(Cl)c3)ncnc2cc1O[C@H]1CCOC1 [Afatinib] + COc1cc2c(Oc3ccc(NC(=O)C4(C(=O)Nc5ccc(F)cc5)CC4)cc3F)ccnc2cc1OCCCN1CCOCC1 [Foretinib] (partner 0.25 µM)
Assay: relative viability (nuclei count vs DMSO), 5 days (fraction); higher = more cells survive
Procedure, shortened: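 After 5 days of treatment, lung cancer cells in 1536-well plates were fixed and stained in a single step (final 0.05% Triton X-100, 1% formaldehyde, 1 ug/ml Hoechst) and their nuclei counted on 4× images. Treatment had been applied by pin tool the day after seeding as one drug alone or as a fixed anchor-drug dose with five library-drug doses (not always all listed) in √10 steps. Relative viability is the nuclei count of treated wells divided by that of vehicle wells, and values are medians of duplicate plates.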

Cell Line | relative viability (first compound 0.005 µM) | relative viability (first compound 0.01581 µM) | relative viability (first compound 0.05 µM) | relative viability (first compound 0.1581 µM) | relative viability (first compound 0.5 µM)
EPLC-272H | 0.492 | 0.426 | 0.406 | 0.381 | 0.355
UMC-11 | 0.992 | 1.03 | 1.08 | 1.02 | 0.996
NCI-H1993 | 0.551 | 0.598 | 0.6 | 0.675 | 0.618
NCI-H596 | 0.811 | 0.952 | 0.675 | 0.643 | 0.873
NCI-H1793 | 0.621 | 0.463 | 0.401 | 0.352 | 0.353
NCI-H1563 | 0.891 | 0.967 | 0.933 | 0.836 | 0.87
NCI-H1395 | 0.939 | 1.05 | 0.973 | 0.914 | 0.937
NCI-H1299 | 1.14 | 1.06 | 1.15 | 1.12 | 1.17
HCC-827 | 0.135 | 0.166 | 0.162 | 0.147 | 0.163
ChaGo-K-1 | 0.86 | 0.882 | 0.876 | 0.86 | 0.846
NCI-H2228 | 0.914 | 0.88 | 0.774 | 0.795 | 0.759
NCI-H2170 | 0.962 | 1.01 | 0.906 | 0.369 | 0.294
EMC-BAC-2 | 1.03 | 0.952 | 0.865 | 0.753 | 0.928
A549 | 0.826 | 0.835 | 0.781 | 0.806 | 0.861
NCI-H23 | 0.99 | 1.02 | 1.02 | 0.847 | 0.951
RERF-LC-KJ | 0.844 | 0.86 | 0.82 | 0.8 | 0.794
NCI-H358 | 0.512 | 0.423 | 0.286 | 0.167 | 0.197
LC-2-ad | 0.815 | 0.718 | 0.565 | 0.565 | 0.6
HCC-15 | 1.04 | 1.15 | 1.08 | 1.07 | 0.988

Cell Line | relative viability (first compound 0.005 µM) | relative viability (first compound 0.01581 µM) | relative viability (first compound 0.05 µM) | relative viability (first compound 0.1581 µM) | relative viability (first compound 0.5 µM)
NCI-H2405 | 1.07 | 1.02 | 1.05 | 0.978 | 1.08
LXF-289 | 0.983 | 0.977 | 0.905 | 0.91 | 0.884
CAL-12T | 1.15 | 1.02 | 1.29 | 0.56 | 0.684
COR-L23 | 1.16 | 0.981 | 0.946 | 1 | 1.01
NCI-H1755 | 0.947 | 0.937 | 0.964 | 0.901 | 0.897
NCI-H1437 | 1.26 | 1.27 | 1.24 | 1.31 | 1.33
NCI-H2085 | 0.888 | 0.773 | 0.791 | 0.59 | 0.628
IA-LM | 1.47 | 1.13 | 1.2 | 1.03 | 1.07
H3255 | 0.861 | 0.134 | 0.2 | 0.216 | 0.188
NCI-H650 | 1.13 | 0.997 | 1.06 | 1.02 | 0.998
LCLC-103H | 0.832 | 0.814 | 0.734 | 0.834 | 0.846
LOU-NH91 | 0.541 | 0.524 | 0.592 | 0.497 | 0.568
NCI-H1650 | 0.871 |  | 0.9 | 0.671 | 0.774
NCI-H3122 | 0.924 | 0.982 | 0.949 | 0.906 | 0.938
PC-3 [JPC-3] | 0.472 | 0.508 | 0.42 | 0.388 | 0.343
Calu-6 | 0.913 | 0.975 | 0.882 | 0.88 | 0.93
NCI-H1651 | 0.825 | 0.636 | 0.822 | 0.748 | 0.746
NCI-H2087 | 1.19 | 1.16 | 1.24 | 1.15 | 0.842
